Data taken from publication PMC5485393, “Tailored chondroitin sulfate glycomimetics via a tunable multivalent scaffold for potentiating NGF/TrkA-induced neurogenesis” (Chemical Science, 2014).
pKd: −log10 of the molar value.

Biological target: NGF (Homo sapiens, UniProt P01138)
Assay: SPR (Biacore T100) kinetic analysis of NGF binding to immobilized glycopeptides
Conditions: for kon: read-out: association rate constant ka of NGF binding (SPR), SEM
Procedure: SPR technology was employed to facilitate quantitative, real-time kinetic analysis of glycopeptide–NGF binding. Biotinylated glycopeptides and CS-E polysaccharides were immobilized on streptavidin-coated surface at normalized levels by molecular weights, and the interactions with NGF were investigated as a function of NGF concentration.
Surface Plasmon Resonance (SPR): Affinity measurements were performed using a Biacore T100
system (GE Healthcare). The CM5 sensor chip was used for all measurements. The sensor was primed
with HBS-EP+ (10 mM HEPES pH 7.4, 150 mM NaCl, 3.4 mM EDTA, 0.005% P20, GE Healthcare)
buffer and was activated using amine coupling through 1:1 mixture of 0.4 M EDC and 0.1 M NHS.
Streptavidin solution (0.008mg/ml) in Acetate 5.0 buffer (GE Healthcare) was used and remaining
activated groups were blocked with 1 M solution of ethanolamine (pH 8.5). The final amount of
streptavidin covalently immobilized on the surface was typically 700 RU. Flow cell 1 (or 3) was used as a
reference to subtract nonspecific binding, drift, and the bulk refractive index, while flow cell 2 (or 4) was
further immobilized with either glycopeptides or CS-E polysaccharides. Either biotinylated glycopeptides
or CS-E polysaccharides (20 nM) were dissolved in HBS-EP+ buffer and were injected to flow cell 2 (or
4) at 30 µL/min until the baseline response increased by 104, 127, and 110 RU, for glycopeptide 5, 1, and
CS-E polysaccharides, respectively. For a given affinity measurement, these series of peptide solutions
were successively injected into the flow cells for 240 seconds of contact time and 800 seconds of
dissociation time using a flow rate of 50 μL/min at 25 °C. Flow cell was regenerated using 2.5 M MgCl2
at 30 μL/min. Association (ka) and dissociation (kd) rate constants were calculated with a 1:1 binding
model using Biacore evaluation software, and KD values were calculated from the ratio of kd to ka. Kinetic

Chain of NGF (P01138 122-241): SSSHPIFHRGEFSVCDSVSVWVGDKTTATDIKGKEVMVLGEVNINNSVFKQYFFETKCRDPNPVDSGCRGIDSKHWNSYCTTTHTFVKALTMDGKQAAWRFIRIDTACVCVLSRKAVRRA

Row | SMILES | pKd | kon [M⁻¹ s⁻¹]
1 | COC(=O)[C@@H]1C[C@@H](n2cc(CO[C@@H]3O[C@H](COS(=O)(=O)O)[C@H](OS(=O)(=O)O)[C@H](O[C@@H]4O[C@H](C(=O)O)[C@@H](O)[C@H](O)[C@H]4O)[C@H]3NC(C)=O)nn2)CN1C(=O)[C@@H]1C[C@@H](n2cc(CO[C@@H]3O[C@H](COS(=O)(=O)O)[C@H](OS(=O)(=O)O)[C@H](O[C@@H]4O[C@H](C(=O)O)[C@@H](O)[C@H](O)[C@H]4O)[C@H]3NC(C)=O)nn2)CN1C(=O)[C@@H]1C[C@@H](n2cc(CO[C@@H]3O[C@H](COS(=O)(=O)O)[C@H](OS(=O)(=O)O)[C@H](O[C@@H]4O[C@H](C(=O)O)[C@@H](O)[C@H](O)[C@H]4O)[C@H]3NC(C)=O)nn2)CN1C(=O)[C@@H]1C[C@@H](n2cc(CO[C@@H]3O[C@H](COS(=O)(=O)O)[C@H](OS(=O)(=O)O)[C@H](O[C@@H]4O[C@H](C(=O)O)[C@@H](O)[C@H](O)[C@H]4O)[C@H]3NC(C)=O)nn2)CN1C(=O)[C@@H]1C[C@@H](n2cc(CO[C@@H]3O[C@H](COS(=O)(=O)O)[C@H](OS(=O)(=O)O)[C@H](O[C@@H]4O[C@H](C(=O)O)[C@@H](O)[C@H](O)[C@H]4O)[C@H]3NC(C)=O)nn2)CN1C(=O)[C@@H]1C[C@@H](n2cc(CO[C@@H]3O[C@H](COS(=O)(=O)O)[C@H](OS(=O)(=O)O)[C@H](O[C@@H]4O[C@H](C(=O)O)[C@@H](O)[C@H](O)[C@H]4O)[C@H]3NC(C)=O)nn2)CN1C(=O)[C@@H]1C[C@@H](n2cc(CO[C@@H]3O[C@H](COS(=O)(=O)O)[C@H](OS(=O)(=O)O)[C@H](O[C@@H]4O[C@H](C(=O)O)[C@@H](O)[C@H](O)[C@H]4O)[C@H]3NC(C)=O)nn2)CN1C(=O)[C@@H]1C[C@@H](n2cc(CO[C@@H]3O[C@H](COS(=O)(=O)O)[C@H](OS(=O)(=O)O)[C@H](O[C@@H]4O[C@H](C(=O)O)[C@@H](O)[C@H](O)[C@H]4O)[C@H]3NC(C)=O)nn2)CN1C(=O)[C@@H]1C[C@@H](n2cc(CO[C@@H]3O[C@H](COS(=O)(=O)O)[C@H](OS(=O)(=O)O)[C@H](O[C@@H]4O[C@H](C(=O)O)[C@@H](O)[C@H](O)[C@H]4O)[C@H]3NC(C)=O)nn2)CN1C(=O)[C@@H]1C[C@@H](n2cc(CO[C@@H]3O[C@H](COS(=O)(=O)O)[C@H](OS(=O)(=O)O)[C@H](O[C@@H]4O[C@H](C(=O)O)[C@@H](O)[C@H](O)[C@H]4O)[C@H]3NC(C)=O)nn2)CN1C(=O)[C@@H]1C[C@@H](n2cc(CO[C@@H]3O[C@H](COS(=O)(=O)O)[C@H](OS(=O)(=O)O)[C@H](O[C@@H]4O[C@H](C(=O)O)[C@@H](O)[C@H](O)[C@H]4O)[C@H]3NC(C)=O)nn2)CN1C(=O)[C@@H]1C[C@@H](n2cc(CO[C@@H]3O[C@H](COS(=O)(=O)O)[C@H](OS(=O)(=O)O)[C@H](O[C@@H]4O[C@H](C(=O)O)[C@@H](O)[C@H](O)[C@H]4O)[C@H]3NC(C)=O)nn2)CN1C(=O)CCOCCOCCOCCOCCOCCOCCOCCOCCOCCOCCOCCOCCNC(=O)CCCC[C@@H]1SC[C@@H]2NC(=O)N[C@@H]21 [compound 1] | 5.45 | 346
2 | COC(=O)[C@@H]1C[C@@H](n2cc(CO[C@@H]3O[C@H](COS(=O)(=O)O)[C@H](OS(=O)(=O)O)[C@H](O[C@@H]4O[C@H](C(=O)O)[C@@H](O)[C@H](O)[C@H]4O)[C@H]3NC(C)=O)nn2)CN1C(=O)[C@@H]1CCCN1C(=O)[C@@H]1CCCN1C(=O)[C@@H]1C[C@@H](n2cc(CO[C@@H]3O[C@H](COS(=O)(=O)O)[C@H](OS(=O)(=O)O)[C@H](O[C@@H]4O[C@H](C(=O)O)[C@@H](O)[C@H](O)[C@H]4O)[C@H]3NC(C)=O)nn2)CN1C(=O)[C@@H]1CCCN1C(=O)[C@@H]1CCCN1C(=O)[C@@H]1C[C@@H](n2cc(CO[C@@H]3O[C@H](COS(=O)(=O)O)[C@H](OS(=O)(=O)O)[C@H](O[C@@H]4O[C@H](C(=O)O)[C@@H](O)[C@H](O)[C@H]4O)[C@H]3NC(C)=O)nn2)CN1C(=O)[C@@H]1CCCN1C(=O)[C@@H]1CCCN1C(=O)[C@@H]1C[C@@H](n2cc(CO[C@@H]3O[C@H](COS(=O)(=O)O)[C@H](OS(=O)(=O)O)[C@H](O[C@@H]4O[C@H](C(=O)O)[C@@H](O)[C@H](O)[C@H]4O)[C@H]3NC(C)=O)nn2)CN1C(=O)[C@@H]1CCCN1C(=O)[C@@H]1CCCN1C(=O)[C@@H]1C[C@@H](n2cc(CO[C@@H]3O[C@H](COS(=O)(=O)O)[C@H](OS(=O)(=O)O)[C@H](O[C@@H]4O[C@H](C(=O)O)[C@@H](O)[C@H](O)[C@H]4O)[C@H]3NC(C)=O)nn2)CN1C(=O)[C@@H]1CCCN1C(=O)[C@@H]1CCCN1C(=O)[C@@H]1C[C@@H](n2cc(CO[C@@H]3O[C@H](COS(=O)(=O)O)[C@H](OS(=O)(=O)O)[C@H](O[C@@H]4O[C@H](C(=O)O)[C@@H](O)[C@H](O)[C@H]4O)[C@H]3NC(C)=O)nn2)CN1C(=O)[C@@H]1CCCN1C(=O)[C@@H]1CCCN1C(=O)[C@@H]1C[C@@H](n2cc(CO[C@@H]3O[C@H](COS(=O)(=O)O)[C@H](OS(=O)(=O)O)[C@H](O[C@@H]4O[C@H](C(=O)O)[C@@H](O)[C@H](O)[C@H]4O)[C@H]3NC(C)=O)nn2)CN1C(=O)[C@@H]1CCCN1C(=O)[C@@H]1CCCN1C(=O)[C@@H]1C[C@@H](n2cc(CO[C@@H]3O[C@H](COS(=O)(=O)O)[C@H](OS(=O)(=O)O)[C@H](O[C@@H]4O[C@H](C(=O)O)[C@@H](O)[C@H](O)[C@H]4O)[C@H]3NC(C)=O)nn2)CN1C(=O)[C@@H]1CCCN1C(=O)[C@@H]1CCCN1C(=O)[C@@H]1C[C@@H](n2cc(CO[C@@H]3O[C@H](COS(=O)(=O)O)[C@H](OS(=O)(=O)O)[C@H](O[C@@H]4O[C@H](C(=O)O)[C@@H](O)[C@H](O)[C@H]4O)[C@H]3NC(C)=O)nn2)CN1C(=O)[C@@H]1CCCN1C(=O)[C@@H]1CCCN1C(=O)[C@@H]1C[C@@H](n2cc(CO[C@@H]3O[C@H](COS(=O)(=O)O)[C@H](OS(=O)(=O)O)[C@H](O[C@@H]4O[C@H](C(=O)O)[C@@H](O)[C@H](O)[C@H]4O)[C@H]3NC(C)=O)nn2)CN1C(=O)[C@@H]1CCCN1C(=O)[C@@H]1CCCN1C(=O)[C@@H]1C[C@@H](n2cc(CO[C@@H]3O[C@H](COS(=O)(=O)O)[C@H](OS(=O)(=O)O)[C@H](O[C@@H]4O[C@H](C(=O)O)[C@@H](O)[C@H](O)[C@H]4O)[C@H]3NC(C)=O)nn2)CN1C(=O)[C@@H]1CCCN1C(=O)[C@@H]1CCCN1C(=O)[C@@H]1C[C@@H](n2cc(CO[C@@H]3O[C@H](COS(=O)(=O)O)[C@H](OS(=O)(=O)O)[C@H](O[C@@H]4O[C@H](C(=O)O)[C@@H](O)[C@H](O)[C@H]4O)[C@H]3NC(C)=O)nn2)CN1C(=O)[C@@H]1CCCN1C(=O)[C@@H]1CCCN1C(=O)CCOCCOCCOCCOCCOCCOCCOCCOCCOCCOCCOCCOCCNC(=O)CCCC[C@@H]1SC[C@@H]2NC(=O)N[C@@H]21 [compound 5] | 6.84 | 13400
